The values below come from US20230257347A1 (priority 2020, published 2023).

The structures appear in SMILES notation. pEC50, pIC50: −log10 of the molar value. Structures can show the parent of a compound that is named as a salt.

The target in experiment [1] is Dopamine Receptor D1 (DRD1) (Homo sapiens, UniProt P21728). In words: cAMP assay, DRD1. The class given is cell-based. (Cyclic AMP is a second messenger, typically raised through Gs and lowered through Gi signalling.)
The next experiment addresses T1, Cyclooxygenase 2 (COX2) (Homo sapiens, UniProt P35354).
T1 construct: purchased BPS Bioscience
T1 sequence (P35354 18-604): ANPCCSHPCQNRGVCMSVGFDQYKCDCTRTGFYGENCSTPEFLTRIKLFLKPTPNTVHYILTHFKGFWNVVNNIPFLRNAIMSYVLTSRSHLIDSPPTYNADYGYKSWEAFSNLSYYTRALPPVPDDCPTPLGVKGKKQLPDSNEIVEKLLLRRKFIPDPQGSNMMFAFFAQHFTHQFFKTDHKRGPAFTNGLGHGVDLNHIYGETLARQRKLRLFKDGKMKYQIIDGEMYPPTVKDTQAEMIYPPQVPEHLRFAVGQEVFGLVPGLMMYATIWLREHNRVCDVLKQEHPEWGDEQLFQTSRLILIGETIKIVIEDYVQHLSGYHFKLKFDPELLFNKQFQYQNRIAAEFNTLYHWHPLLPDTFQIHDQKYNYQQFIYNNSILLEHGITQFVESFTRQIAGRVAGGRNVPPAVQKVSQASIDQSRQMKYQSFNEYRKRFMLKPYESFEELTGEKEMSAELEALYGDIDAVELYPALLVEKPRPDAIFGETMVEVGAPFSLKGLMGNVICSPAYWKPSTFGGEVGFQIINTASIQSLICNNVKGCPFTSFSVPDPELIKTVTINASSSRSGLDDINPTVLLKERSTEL
Description: Enzymatic assay, COX2. The class given is biochemical.

For experiment [2], the target named is T2, 5-Hydroxytryptamine (Serotonin) Receptor 1A (5-HT1A) (Homo sapiens, UniProt P08908).
T2 sequence (P08908 1-422): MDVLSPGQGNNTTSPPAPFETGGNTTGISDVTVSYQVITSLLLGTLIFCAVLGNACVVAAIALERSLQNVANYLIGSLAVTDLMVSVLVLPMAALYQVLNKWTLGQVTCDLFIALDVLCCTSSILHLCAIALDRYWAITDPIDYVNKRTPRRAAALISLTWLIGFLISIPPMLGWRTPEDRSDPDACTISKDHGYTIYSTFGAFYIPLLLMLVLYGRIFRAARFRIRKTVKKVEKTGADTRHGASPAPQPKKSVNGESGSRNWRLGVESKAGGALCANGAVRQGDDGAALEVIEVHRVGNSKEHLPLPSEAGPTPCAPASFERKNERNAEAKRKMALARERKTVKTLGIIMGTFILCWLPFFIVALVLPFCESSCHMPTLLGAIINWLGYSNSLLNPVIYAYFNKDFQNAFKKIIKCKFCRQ
In words: cAMP secondary messenger assay, 5-HT1A. The format is cell-based.

In experiment [3] the target is T3, Norepinephrine transporter (NET) (Homo sapiens, UniProt P23975).
T3 construct: expressed in transfected cells
T3 sequence (P23975 whole entry): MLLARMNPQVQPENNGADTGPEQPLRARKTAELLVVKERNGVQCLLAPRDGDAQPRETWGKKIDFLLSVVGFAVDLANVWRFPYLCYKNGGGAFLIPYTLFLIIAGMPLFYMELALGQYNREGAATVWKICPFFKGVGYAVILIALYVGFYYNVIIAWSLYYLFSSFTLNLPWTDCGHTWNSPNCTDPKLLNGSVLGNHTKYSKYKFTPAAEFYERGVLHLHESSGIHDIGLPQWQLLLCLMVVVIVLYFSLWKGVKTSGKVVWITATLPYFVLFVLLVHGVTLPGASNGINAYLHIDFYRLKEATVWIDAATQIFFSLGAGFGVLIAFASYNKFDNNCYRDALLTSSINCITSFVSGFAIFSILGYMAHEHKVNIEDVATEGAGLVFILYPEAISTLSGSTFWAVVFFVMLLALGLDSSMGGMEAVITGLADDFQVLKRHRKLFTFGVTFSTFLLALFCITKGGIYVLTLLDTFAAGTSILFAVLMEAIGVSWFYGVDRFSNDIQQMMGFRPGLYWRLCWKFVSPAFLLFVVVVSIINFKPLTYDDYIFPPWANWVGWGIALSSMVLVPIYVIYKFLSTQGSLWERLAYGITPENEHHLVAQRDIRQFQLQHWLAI
In words: Monoamine transporter uptake assay (fluorescent substrate), NET. The format is cell-based.

In experiment [4] the target is T4, Acetylcholinesterase (AChE) (Homo sapiens, UniProt P22303).
T4 construct: purchased R&D Systems
T4 sequence (P22303 32-614): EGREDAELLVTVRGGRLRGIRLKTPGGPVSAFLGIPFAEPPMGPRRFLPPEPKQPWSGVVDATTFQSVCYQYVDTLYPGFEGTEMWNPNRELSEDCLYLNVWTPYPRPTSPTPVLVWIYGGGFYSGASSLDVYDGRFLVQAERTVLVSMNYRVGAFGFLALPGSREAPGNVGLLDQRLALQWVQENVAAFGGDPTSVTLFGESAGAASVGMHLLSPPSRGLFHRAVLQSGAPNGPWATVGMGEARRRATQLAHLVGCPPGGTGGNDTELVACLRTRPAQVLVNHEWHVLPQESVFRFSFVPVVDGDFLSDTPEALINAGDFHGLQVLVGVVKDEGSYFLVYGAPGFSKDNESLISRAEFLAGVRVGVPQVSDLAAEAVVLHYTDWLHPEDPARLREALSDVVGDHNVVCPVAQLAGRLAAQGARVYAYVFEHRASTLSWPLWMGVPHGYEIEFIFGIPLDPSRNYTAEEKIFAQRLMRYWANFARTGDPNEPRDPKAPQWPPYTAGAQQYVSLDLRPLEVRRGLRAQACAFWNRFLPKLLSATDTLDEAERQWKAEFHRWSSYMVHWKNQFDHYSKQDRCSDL
Description: Enzymatic assay, AChE. The format is biochemical.

Experiment [5] has as its target Opioid Receptor Delta 1 (OPRD1) (Homo sapiens, UniProt P41143). In words: cAMP assay, OPRD1. The class given is cell-based.
Experiment [6] addresses T5, Adrenergic Receptor α1A (ADRA1A) (Homo sapiens, UniProt P35348).
T5 sequence (P35348 1-466): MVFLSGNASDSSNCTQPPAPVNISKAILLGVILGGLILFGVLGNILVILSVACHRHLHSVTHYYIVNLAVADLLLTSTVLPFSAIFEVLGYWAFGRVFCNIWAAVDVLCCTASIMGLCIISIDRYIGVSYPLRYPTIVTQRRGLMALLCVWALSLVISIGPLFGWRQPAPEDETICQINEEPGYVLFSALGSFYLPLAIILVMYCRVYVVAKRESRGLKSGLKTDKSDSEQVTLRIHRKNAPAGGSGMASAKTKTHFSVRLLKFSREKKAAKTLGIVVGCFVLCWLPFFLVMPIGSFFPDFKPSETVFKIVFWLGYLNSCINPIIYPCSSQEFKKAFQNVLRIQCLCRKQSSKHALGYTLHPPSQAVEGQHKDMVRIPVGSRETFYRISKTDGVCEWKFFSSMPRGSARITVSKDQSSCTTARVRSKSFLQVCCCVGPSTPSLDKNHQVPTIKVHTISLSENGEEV
Description: Calcium flux assay, ADRA1A. The format is cell-based.

The target of experiment [7] is Opioid Receptor Mu (OPRM1) (Homo sapiens, UniProt P35372). In words: cell-based.
Sequence of Opioid Receptor Mu (OPRM1) (P35372 whole entry): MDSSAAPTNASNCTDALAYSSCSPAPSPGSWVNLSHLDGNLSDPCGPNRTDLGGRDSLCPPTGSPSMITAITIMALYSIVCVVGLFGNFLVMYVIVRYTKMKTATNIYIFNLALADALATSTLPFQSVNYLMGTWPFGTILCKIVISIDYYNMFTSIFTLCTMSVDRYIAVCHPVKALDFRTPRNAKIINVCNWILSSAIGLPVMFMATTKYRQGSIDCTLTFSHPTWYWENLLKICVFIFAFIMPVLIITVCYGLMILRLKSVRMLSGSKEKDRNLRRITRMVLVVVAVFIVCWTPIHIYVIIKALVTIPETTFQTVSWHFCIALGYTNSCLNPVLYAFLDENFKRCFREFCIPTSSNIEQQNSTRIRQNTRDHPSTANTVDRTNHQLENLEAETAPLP
Another experiment relates to MDMA-trained rats. In words: Drug discrimination in rats trained to distinguish MDMA from placebo. The format is in vivo. Particulars: 1, 2, and 4 mg/kg intraperitoneal.

Sequence of Dopamine Receptor D1 (DRD1) (P21728 whole entry): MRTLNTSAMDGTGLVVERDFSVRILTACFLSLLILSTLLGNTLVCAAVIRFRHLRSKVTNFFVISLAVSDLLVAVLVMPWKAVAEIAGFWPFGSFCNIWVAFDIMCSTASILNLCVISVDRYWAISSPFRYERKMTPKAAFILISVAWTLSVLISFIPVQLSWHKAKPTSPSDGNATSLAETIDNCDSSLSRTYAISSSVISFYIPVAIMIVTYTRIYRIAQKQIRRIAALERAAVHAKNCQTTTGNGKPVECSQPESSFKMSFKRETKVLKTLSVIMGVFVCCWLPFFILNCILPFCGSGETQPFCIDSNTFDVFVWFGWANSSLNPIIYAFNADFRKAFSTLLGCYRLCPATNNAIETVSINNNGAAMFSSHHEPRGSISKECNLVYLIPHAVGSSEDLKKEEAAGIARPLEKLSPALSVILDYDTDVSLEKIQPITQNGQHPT
Sequence of Opioid Receptor Delta 1 (OPRD1) (P41143 whole entry): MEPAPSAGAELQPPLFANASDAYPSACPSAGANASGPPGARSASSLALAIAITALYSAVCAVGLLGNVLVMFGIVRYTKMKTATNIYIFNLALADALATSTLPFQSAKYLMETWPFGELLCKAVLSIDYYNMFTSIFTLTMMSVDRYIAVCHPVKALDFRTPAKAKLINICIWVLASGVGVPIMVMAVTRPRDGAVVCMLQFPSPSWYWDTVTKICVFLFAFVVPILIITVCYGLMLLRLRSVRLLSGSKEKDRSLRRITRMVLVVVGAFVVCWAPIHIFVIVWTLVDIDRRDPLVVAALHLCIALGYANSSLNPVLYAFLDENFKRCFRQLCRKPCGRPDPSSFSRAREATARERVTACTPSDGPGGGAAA

Take `CNC(C)C(=O)c1c[nH]c2ccc(Cl)cc12` (centres unmarked) [BK-5Cl-NM-AMT, 1-(5-chloro-1H-indol-3-yl)-2-(methylamino) propan-1-one hydrochloride]: the pEC50 in experiment [1], in experiment [2], in [5], in experiment [6] and in experiment [7] was less than 5.00 throughout. The pIC50 (in experiment [1]; on Cyclooxygenase 2 (COX2); in [2]; in experiment [3]; in experiment [4]; in experiment [5]) was less than 5.00 in each case. Also, the pIC50 in [6] and in experiment [7] was less than 5.00 in each case.

For the compound `CNC(C)C(=O)c1c[nH]c2ccc(Br)cc12` (centres unmarked) [BK-5Br-NM-AMT, 1-(5-bromo-1H-indol-3-yl)-2-(methylamino) propan-1-one hydrochloride], the pEC50 is less than 5.00 in experiment [1]; less than 5.00 in experiment [2]; less than 5.00 in experiment [5]; 5.08 in experiment [6]; less than 5.00 in experiment [7]. For the same compound, the pIC50 in experiment [1] is 5.01; at Cyclooxygenase 2 (COX2) it was less than 5.00; in experiment [2], less than 5.00; in experiment [3], less than 5.00; in experiment [4] it was less than 5.00; in experiment [5], less than 5.00. Further, the pIC50 in experiment [6] and in experiment [7] was less than 5.00 throughout.

For the compound `CNC(C)C(=O)c1c[nH]c2ccc(F)cc12` (centres unmarked) [BK-5F-NM-AMT, 1-(5-Fluoro-1H-indol-3-yl)-2-(methylamino) propan-1-one hydrochloride], the pEC50 in experiment [1], in experiment [2], in [5], in experiment [6] and in experiment [7] was less than 5.00 throughout. Besides, the pIC50 (in experiment [1]; at Cyclooxygenase 2 (COX2); in experiment [2]; in experiment [3]; in [4]; in experiment [5]) was less than 5.00 each time. Moreover, the pIC50 in experiment [6] and in [7] was less than 5.00 throughout. The “percent responses on the MDMA-associated lever” value with MDMA-trained rats (30 min prior to test, four MDMA-trained rats) was “significantly and dose-dependently different from those of MDMA”. Besides, the “rate of lever pressing (responses per second)” value in the experiment with MDMA-trained rats (control measure) is listed as “not altered”.

The term pEC50 denotes −log10 of the EC50, conventionally taken in molar units. For orientation: pIC50 means the IC50 on a negative log10 scale, so that one unit is a factor of ten.
